# Reference: patent US8574563B2 (Bristol-Myers Squibb Company, priority 2006, dated 2013)
# Test system: HCV 1b-377-neo replicon cells
# Assay: HCV replicon assay, HCV 1b-377-neo replicon cells (1b FRET)
# Format: cell-based, Hepatitis C virus genotype 1b
# Details: Hepatitis C virus, HCV 1b-377-neo replicon cells; HCV 1b genotype; read-out: EC50 range against HCV 1b (Table 2, Range)
# How it was run: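 Compounds tested in HCV genotype 1b-377-neo replicon cells with a FRET read-out. Cells resistant to a reference NS5A inhibitor through a Y2065H NS5A mutation were run alongside wild-type cells.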
row,Structure (SMILES),EC50
1,"CC(C)[C@@H](NC(=O)OC(C)(C)C)C(=O)N1[C@@H]2C[C@@H]2C[C@H]1c1nc(-c2ccc(-c3ccc(-c4c[nH]c([C@@H]5C[C@H]6C[C@H]6N5C(=O)[C@H](NC(=O)OC(C)(C)C)C(C)C)n4)cc3)cc2)c[nH]1 [Example M142, tert-butyl ((1R)-1-(((1R,3S,5R)-3-(4-(4′-(2-((1R,3S,5R)-2-((2R)-2-((tert-butoxycarbonyl)amino)-3-methylbutanoyl)-2-azabicyclo[3.1.0]hex-3-yl)-1H-imidazol-4-yl)-4-biphenylyl)-1H-imidazol-2-yl)-2-azabicyclo[3.1.0]hex-2-yl)carbonyl)-2-methylpropyl)carbamate]",1 to 99 nM
2,"COC(=O)N[C@@H](C(=O)N1CCC[C@H]1c1ncc(-c2ccc(-c3ccc(-c4cnc([C@@H]5CCCN5C(=O)[C@@H](c5ccccc5)N5CCCC5)[nH]4)cc3)cc2)[nH]1)c1ccccc1 [Example 100, methyl ((1R)-2-oxo-1-phenyl-2-((2S)-2-(5-(4′-(2-((2S)-1-((2R)-2-phenyl-2-(1-pyrrolidinyl)acetyl)-2-pyrrolidinyl)-1H-imidazol-5-yl)-4-biphenylyl)-1H-imidazol-2-yl)-1-pyrrolidinyl)ethyl)carbamate]",0.001 to 0.999 nM
3,"CN1CCC[C@H]1C(=O)N[C@@H](C(=O)N1CCC[C@H]1c1ncc(-c2ccc(-c3ccc(-c4cnc([C@@H]5CCCN5C(=O)[C@@H]5CCCO5)[nH]4)cc3)cc2)[nH]1)c1ccccc1 [Example 113, 1-methyl-N-((1R)-2-oxo-1-phenyl-2-((2S)-2-(5-(4′-(2-((2S)-1-((2S)-tetrahydro-2-furanylcarbonyl)-2-pyrrolidinyl)-1H-imidazol-5-yl)-4-biphenylyl)-1H-imidazol-2-yl)-1-pyrrolidinyl)ethyl)-L-prolinamide]",0.001 to 0.999 nM
4,"COC(=O)N[C@@H](C)C(=O)N1CCC[C@H]1c1nc(-c2cnc(-c3ccc(-c4cnc([C@@H]5CCCN5C(=O)[C@H](C)NC(=O)OC)[nH]4)c(F)c3)nc2)c[nH]1 [Example D67, methyl ((1S)-2-((2S)-2-(5-(2-fluoro-4-(5-(2-((2S)-1-(N-(methoxycarbonyl)-L-alanyl)-2-pyrrolidinyl)-1H-imidazol-5-yl)-2-pyrimidinyl)phenyl)-1H-imidazol-2-yl)-1-pyrrolidinyl)-1-methyl-2-oxoethyl)carbamate]",0.001 to 0.999 nM
5,"COC(=O)N[C@@H](C(=O)N1CCC[C@H]1c1ncc(-c2ccc(-c3ccc(-c4cnc([C@@H]5CCCN5C(=O)[C@H](C)c5ccccc5)[nH]4)cc3)cc2)[nH]1)c1ccccc1 [Example 84-76, methyl ((1R)-2-oxo-1-phenyl-2-((2S)-2-(5-(4′-(2-((2S)-1-((2R)-2-phenylpropanoyl)-2-pyrrolidinyl)-1H-imidazol-5-yl)-4-biphenylyl)-1H-imidazol-2-yl)-1-pyrrolidinyl)ethyl)carbamate]",0.001 to 0.999 nM
6,"Cc1cc(-c2cnc([C@@H]3CCCN3C(=O)[C@H](O)c3ccccc3)[nH]2)ccc1-c1ccc(-c2cnc([C@@H]3CCCN3C(=O)[C@H](O)c3ccccc3)[nH]2)cc1 [Example 125, (1R,1′R)-2,2′-((2-methyl-4,4′-biphenyldiyl)bis(1H-imidazole-5,2-diyl(2S)-2,1-pyrrolidinediyl))bis(2-oxo-1-phenylethanol)]",0.001 to 0.999 nM
7,"COC(=O)N[C@@H](Cc1cscn1)C(=O)N1CCC[C@H]1c1ncc(-c2ccc(-c3ccc(-c4cnc([C@@H]5CCCN5C(=O)[C@@H](NC(=O)OC)C(C)C)[nH]4)cc3)cc2)[nH]1 [cj-79, methyl ((1S)-1-(((2S)-2-(5-(4′-(2-((2S)-1-((2S)-2-((methoxycarbonyl)amino)-3-(1,3-thiazol-4-yl)propanoyl)-2-pyrrolidinyl)-1H-imidazol-5-yl)-4-biphenylyl)-1H-imidazol-2-yl)-1-pyrrolidinyl)carbonyl)-2-methylpropyl)carbamate]",0.001 to 0.999 nM
8,"C=CC[C@H](NC(=O)OC)C(=O)N1CCC[C@H]1c1ncc(-c2ccc(-c3ccc(-c4cnc([C@@H]5CCCN5C(=O)[C@@H](c5ccccc5)N(CC)CC)[nH]4)cc3)cc2)[nH]1 [Example M60, methyl ((1S)-1-(((2S)-2-(5-(4′-(2-((2S)-1-((2R)-2-(diethylamino)-2-phenylacetyl)-2-pyrrolidinyl)-1H-imidazol-5-yl)-4-biphenylyl)-1H-imidazol-2-yl)-1-pyrrolidinyl)carbonyl)-3-buten-1-yl)carbamate]",1 to 99 nM
9,"COC(=O)N[C@@H](C)C(=O)N1CCC[C@H]1c1ncc(-c2ccc(-c3ccc(-c4cnc([C@@H]5CCCN5C(=O)[C@H](Cc5cn(Cc6ccccc6)cn5)NC(=O)OC)[nH]4)cc3)cc2)[nH]1 [cj-77, methyl ((1S)-2-((2S)-2-(5-(4′-(2-((2S)-1-((2S)-3-(1-benzyl-1H-imidazol-4-yl)-2-((methoxycarbonyl)amino)propanoyl)-2-pyrrolidinyl)-1H-imidazol-5-yl)-4-biphenylyl)-1H-imidazol-2-yl)-1-pyrrolidinyl)-1-methyl-2-oxoethyl)carbamate]",0.001 to 0.999 nM
10,"Cc1nc([C@@H]2CCCN2C(=O)[C@@H](c2ccccc2)N(C)C)[nH]c1-c1ccc(-c2ccc(-c3nc([C@@H]4CCCN4C(=O)[C@@H](c4ccccc4)N(C)C)[nH]c3C)cc2)cc1 [Example E5g, (1R,1′R)-2,2′-(4,4′-biphenyldiylbis((4-methyl-1H-imidazole-5,2-diyl)(2S)-2,1-pyrrolidinediyl))bis(N,N-dimethyl-2-oxo-1-phenylethanamine)]",0.001 to 0.999 nM
11,"CN1CCN(C(=O)N[C@@H](C(=O)N2CCC[C@H]2c2ncc(-c3ccc(-c4ccc(-c5cnc([C@@H]6CCCN6C(=O)[C@H](NC(=O)N6CCN(C)CC6)c6ccccc6)[nH]5)cc4)cc3)[nH]2)c2ccccc2)CC1 [Example 25-7, N,N′-(4,4′-biphenyldiylbis(1H-imidazole-5,2-diyl(2S)-2,1-pyrrolidinediyl((1R)-2-oxo-1-phenyl-2,1-ethanediyl)))bis(4-methyl-1-piperazinecarboxamide)]",1 to 99 nM
12,"COC(=O)N[C@@H](C)C(=O)N1C[C@H](F)C[C@H]1c1ncc(-c2ccc(-c3ccc(-c4cnc([C@@H]5C[C@@H](F)CN5C(=O)[C@H](C)NC(=O)OC)[nH]4)cc3)cc2)[nH]1 [JG-3, methyl ((1S)-2-((2S,4R)-4-fluoro-2-(5-(4′-(2-((2S,4R)-4-fluoro-1-(N-(methoxycarbonyl)-L-alanyl)-2-pyrrolidinyl)-1H-imidazol-5-yl)-4-biphenylyl)-1H-imidazol-2-yl)-1-pyrrolidinyl)-1-methyl-2-oxoethyl)carbamate]",0.001 to 0.999 nM
13,"COC(=O)N[C@@H](CC(=O)N1CCC[C@H]1c1ncc(-c2ccc(-c3ccc(-c4cnc([C@@H]5CCCN5C(=O)C[C@H](NC(=O)OC)c5ccccc5)[nH]4)cc3)cc2)[nH]1)c1ccccc1 [cj-129, methyl ((1S)-3-((2S)-2-(5-(4′-(2-(1-((3S)-3-((methoxycarbonyl)amino)-3-phenylpropanoyl)-2-pyrrolidinyl)-1H-imidazol-5-yl)-4-biphenylyl)-1H-imidazol-2-yl)-1-pyrrolidinyl)-3-oxo-1-phenylpropyl)carbamate]",0.001 to 0.999 nM
14,"CC[C@H](NC(=O)OC)C(=O)N1[C@@H]2C[C@@H]2C[C@H]1c1nc(-c2ccc(-c3ccc(-c4c[nH]c([C@@H]5C[C@H]6C[C@H]6N5C(=O)[C@H](CC)NC(=O)OC)n4)cc3)cc2)c[nH]1 [Example M133, dimethyl (4,4′-biphenyl-diylbis(1H-imidazole-4,2-diyl(1R,3S,5R)-2-azabicyclo[3.1.0]hexane-3,2-diyl((2S)-1-oxo-1,2-butanediyl)))biscarbamate]",0.001 to 0.999 nM
15,"CCN(CC)[C@@H](C(=O)N1CCC[C@H]1c1ncc(-c2ccc(-c3ccc(-c4cnc([C@@H]5CCCN5C(=O)[C@H](Cc5c[nH]c6ccccc56)NC(=O)OC)[nH]4)cc3)cc2)[nH]1)c1ccccc1 [cj-101, methyl ((1S)-2-((2S)-2-(5-(4′-(2-((2S)-1-((2R)-2-(diethylamino)-2-phenylacetyl)-2-pyrrolidinyl)-1H-imidazol-5-yl)-4-biphenylyl)-1H-imidazol-2-yl)-1-pyrrolidinyl)-1-(1H-indol-3-ylmethyl)-2-oxoethyl)carbamate]",0.001 to 0.999 nM
16,"CNC(=O)N[C@@H](C(=O)N1C[C@H](O)C[C@H]1c1ncc(-c2ccc(-c3ccc(-c4cnc([C@@H]5C[C@@H](O)CN5C(=O)[C@H](NC(=O)NC)c5ccccc5)[nH]4)cc3)cc2)[nH]1)c1ccccc1 [Example 24-13, N,N″-(4,4′-biphenyldiylbis(1H-imidazole-5,2-diyl((2S,4R)-4-hydroxy-2,1-pyrrolidinediyl)((1R)-2-oxo-1-phenyl-2,1-ethanediyl)))bis(3-methylurea)]",100 to 999 nM
17,"O=C(Cc1cccnc1)N[C@@H](C(=O)N1CCC[C@H]1c1ncc(-c2ccc(-c3ccc(-c4c[nH]c([C@@H]5CCCN5C(=O)[C@H]5CCCO5)n4)cc3)cc2)[nH]1)c1ccccc1 [Example 120-7, N-((1R)-2-oxo-1-phenyl-2-((2S)-2-(5-(4′-(2-((2S)-1-((2R)-tetrahydro-2-furanylcarbonyl)-2-pyrrolidinyl)-1H-imidazol-4-yl)-4-biphenylyl)-1H-imidazol-2-yl)-1-pyrrolidinyl)ethyl)-2-(3-pyridinyl)acetamide]",0.001 to 0.999 nM
18,"CC(C)(C)OC(=O)N[C@H]1CC[C@@H](C(=O)N2CCC[C@H]2c2ncc(-c3ccc(-c4ccc(-c5cnc([C@@H]6CCCN6C(=O)[C@@H](c6ccccc6)N6CCCCC6)[nH]5)cc4)cc3)[nH]2)CC1 [Example 107-13, tert-butyl (cis-4-(((2S)-2-(5-(4′-(2-((2S)-1-((2R)-2-phenyl-2-(1-piperidinyl)acetyl)-2-pyrrolidinyl)-1H-imidazol-5-yl)-4-biphenylyl)-1H-imidazol-2-yl)-1-pyrrolidinyl)carbonyl)cyclohexyl) carbamate]",0.001 to 0.999 nM
19,"COC(=O)N[C@@H](C(=O)N1CCC[C@H]1c1ncc(-c2ccc(-c3ccc(-c4cnc([C@@H]5CCCN5C(=O)C5(C(F)(F)F)CC5)[nH]4)cc3)cc2)[nH]1)c1ccccc1 [Example 84-32, methyl ((1R)-2-oxo-1-phenyl-2-((2S)-2-(5-(4′-(2-((2S)-1-((1-(trifluoromethyl)cyclopropyl)carbonyl)-2-pyrrolidinyl)-1H-imidazol-5-yl)-4-biphenylyl)-1H-imidazol-2-yl)-1-pyrrolidinyl)ethyl)carbamate]",0.001 to 0.999 nM
